From US20230348426A1, “OXOPYRROLIDINE FPR2 AGONISTS” (Bristol-Myers Squibb Company, priority 2020, published 2023) come the findings set out here.

A value given as a limit tells only on which side of the number the result lay.

Assay [1] addresses human FPR2 (Homo sapiens (Human), UniProt P25090). As to the kind of experiment: FPR2 cyclic adenosine monophosphate (cAMP) assay. The class given is cell-based. The note with it: CHO cells overexpressing human FPR2; forskolin 5 µM; inhibition of cAMP production; read-out: hFPR2 cAMP2 EC50. Put shortly: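 CHO cells overexpressing human FPR2 (2,000/well) incubated 30 min at room temperature with compound (0.020 nM–100 µM, 1% DMSO), 5 µM forskolin and 200 µM IBMX.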
A general note: Changes in cAMP serve as a functional read-out for many G protein-coupled receptors.

For assay [2], the target named is human FPR1 (Homo sapiens (Human), UniProt P21462). As to the kind of experiment: FPR1 cyclic adenosine monophosphate (cAMP) assay. The note with it: CHO cells overexpressing human FPR1; forskolin 10 µM; inhibition of cAMP production; read-out: hFPR1 cAMP EC50. The class given is cell-based. Put shortly: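 CHO cells overexpressing human FPR1 (4,000 cells/well) stimulated with 10 µM forskolin plus 200 µM IBMX in the presence of compound (0.020 nM–100 µM, 1% DMSO), 30 min at room temperature. Intracellular cAMP measured by HTRF. Inhibition of cAMP production fitted to a 4-parameter logistic equation.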

For orientation: EC50 means the midpoint of the concentration-response curve.

human FPR1, sequence (P21462 whole entry): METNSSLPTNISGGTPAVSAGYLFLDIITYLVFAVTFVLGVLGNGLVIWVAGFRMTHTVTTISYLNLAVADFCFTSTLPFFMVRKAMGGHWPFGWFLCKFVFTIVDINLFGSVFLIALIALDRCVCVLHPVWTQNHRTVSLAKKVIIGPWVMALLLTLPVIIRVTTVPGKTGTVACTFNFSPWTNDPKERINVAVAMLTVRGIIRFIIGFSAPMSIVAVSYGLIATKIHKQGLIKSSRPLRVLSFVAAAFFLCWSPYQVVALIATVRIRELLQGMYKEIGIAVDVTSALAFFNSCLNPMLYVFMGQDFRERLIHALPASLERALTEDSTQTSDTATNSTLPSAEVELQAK
human FPR2, sequence (P25090 whole entry): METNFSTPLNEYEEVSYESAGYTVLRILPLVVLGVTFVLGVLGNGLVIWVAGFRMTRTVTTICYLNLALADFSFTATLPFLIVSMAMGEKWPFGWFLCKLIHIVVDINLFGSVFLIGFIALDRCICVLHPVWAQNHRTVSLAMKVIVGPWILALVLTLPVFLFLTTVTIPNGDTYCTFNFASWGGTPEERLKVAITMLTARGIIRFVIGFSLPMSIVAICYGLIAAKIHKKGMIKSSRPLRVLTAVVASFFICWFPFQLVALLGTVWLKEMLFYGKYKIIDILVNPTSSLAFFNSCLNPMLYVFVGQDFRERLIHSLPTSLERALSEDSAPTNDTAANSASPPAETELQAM

As for `COc1cc(F)c([C@@H]2CN(c3cncn(CC4CCOCC4)c3=O)C(=O)[C@H]2NC(=O)c2ccc(Cl)cc2)c(F)c1` [Example 547], the EC50 in assay [1] came to 4.5 nM; in assay [2] it was 2400 nM.

As for `COc1cc(C2CCN(CC(F)(F)F)CC2)nc(N2C(=O)[C@@H](NC(=O)c3ccc(OC(F)F)cc3)[C@H](c3c(F)cc(OC)cc3F)[C@@H]2C)c1` [Example 548], the EC50 in assay [1] is 280 nM; in assay [2] it was above 5000 nM.

In the case of `COc1cc(F)c([C@@H]2CN(c3nc(C4CCN(CC(F)F)CC4)ccc3F)C(=O)[C@H]2NC(=O)c2ccc(OC(F)F)cc2)c(F)c1` [Example 549], the values for the EC50 in assay [1] and in assay [2] were 4.1 nM and 28 nM, respectively.

Turning to `COc1cc(F)c([C@@H]2CN(c3nc(C4CCN(CC(F)(F)F)CC4)ccc3F)C(=O)[C@H]2NC(=O)c2ccc(OC(F)F)cc2)c(F)c1` [Example 550], the EC50 stood at 10 nM in assay [1] and 3.5 nM in assay [2].

Turning to `COc1cc(F)c([C@@H]2CN(c3nc(C(F)(F)F)ccc3C#N)C(=O)[C@H]2NC(=O)c2ccc(OC(F)(F)F)cc2)c(F)c1` [Example 551], the EC50 in assay [1] was 1.5 nM; in assay [2] it was 77 nM.

Consider `COc1cc(N2C[C@@H]3C[C@H]2CO3)nc(N2C(=O)[C@@H](NC(=O)c3ccc(OC(F)(F)F)cc3)[C@H](c3c(F)cc(OC)cc3F)[C@@H]2C)c1` [Example 552], for which the EC50 in assay [1] was found to be 130 nM; in assay [2] it was 440 nM.

As to `COc1cc(F)c([C@H]2[C@H](NC(=O)c3ccc(Cl)cc3)C(=O)N(c3nccn(CC(F)F)c3=O)[C@@H]2C)c(F)c1` [Example 554], the EC50 in assay [1] was found to be 4.3 nM; in assay [2], 2400 nM.

`COc1cc(F)c([C@H]2[C@H](NC(=O)c3ccc(OC(F)F)cc3)C(=O)N(c3cncn(CC(F)F)c3=O)[C@H]2C)c(F)c1` [Example 555]: the EC50 in assay [1] turned out to be 31 nM; in assay [2], 530 nM.

As to `COc1cc(F)c([C@@H]2CN(c3nc(C4CCN(C)CC4)ccc3F)C(=O)[C@H]2NC(=O)c2ccc(OC(F)F)cc2)c(F)c1` [Example 556], the EC50 in assay [1] is 2.2 nM; in assay [2] it was 2000 nM.

Consider `COc1cc(F)c([C@H]2[C@H](NC(=O)c3ccc(OC(F)F)cc3)C(=O)N(c3cccc(OCCO)n3)[C@H]2C)c(F)c1` [Example 559], for which the EC50 in assay [1] came out at 6.6 nM; in assay [2] it was 450 nM.

For `COc1cc(F)c([C@H]2[C@H](NC(=O)c3ccc(Cl)cc3)C(=O)N(c3nccn(CC(F)F)c3=O)[C@H]2C)c(F)c1` [Example 560], the results for the EC50 in assay [1] and in assay [2] were 0.8 nM and 120 nM, respectively.

As to `COc1cc(F)c([C@H]2[C@H](NC(=O)c3ccc(OC(F)F)cc3)C(=O)N(c3cccc(N4CC[C@@H](O)C4)n3)[C@H]2C)c(F)c1` [Example 561], the values for the EC50 in assay [1] and in assay [2] were 4.3 nM and 170 nM, respectively.

As for `COCC(CO)n1ccc(C)c(N2C[C@@H](c3ccc(OC)cc3)[C@H](NC(=O)c3ccc(OC(F)(F)F)cc3)C2=O)c1=O` (stereo partly drawn) [Example 563], the concentration giving a half-maximal response (EC50) in assay [1] and in assay [2] was 2.3 nM throughout.

With `COCC(CO)n1ccc(C)c(N2C[C@@H](c3ccc(OC)cc3)[C@H](NC(=O)c3ccc(OC(F)(F)F)cc3)C2=O)c1=O` (stereo partly drawn) [Example 564], the values for the EC50 in assay [1] and in assay [2] were 3.6 nM and 0.5 nM, respectively.

As to `COc1cc(C2CCN(C)CC2)nc(N2C(=O)[C@@H](NC(=O)c3ccc(OC(F)(F)F)cc3)[C@H](c3c(F)cc(OC)cc3F)[C@@H]2C)c1` [Example 565], the EC50 in assay [1] is 8.2 nM; in assay [2], 720 nM.

For the compound `COc1cc(F)c([C@@H]2CN(c3cccc(N4CCN(C)CC4)n3)C(=O)[C@H]2NC(=O)c2ccc(OC(F)F)cc2)c(F)c1` [Example 566], the 50% effective concentration (EC50) in assay [1] is 1.1 nM; in assay [2], 990 nM.

For the compound `COc1cc(F)c([C@@H]2CN(c3cccc(N4CCN(S(C)(=O)=O)CC4)n3)C(=O)[C@H]2NC(=O)c2ccc(OC(F)F)cc2)c(F)c1` [Example 567], the concentration for a half-maximal effect (EC50) in assay [1] was 9.6 nM; in assay [2], above 5000 nM.

`COc1cc(F)c([C@H]2[C@H](NC(=O)c3ccc(OC(F)F)cc3)C(=O)N(c3cccc(N4CC[C@H](O)C4)n3)[C@H]2C)c(F)c1` [Example 568]: the EC50 came out at 2.8 nM in assay [1] and 440 nM in assay [2].

In the case of `COc1cc(F)c([C@@H]2CN(c3ccc(F)c(N4C[C@@H]5C[C@H]4CN5C)n3)C(=O)[C@H]2NC(=O)c2ccc(OC(F)F)cc2)c(F)c1` [Example 569], the EC50 in assay [1] is 1.2 nM; in assay [2], 1600 nM.

Consider `COc1cc(F)c([C@@H]2CN(c3cc(C)cc(N4C[C@@H]5C[C@H]4CN5C)n3)C(=O)[C@H]2NC(=O)c2ccc(OC(F)F)cc2)c(F)c1` [Example 570], for which the figures for the EC50 in assay [1] and in assay [2] were 1.2 nM and 1500 nM, respectively.

Take `COc1cc(F)c([C@@H]2CN(c3cc(C)cc(N4C[C@@H]5C[C@H]4CN5C)n3)C(=O)[C@H]2NC(=O)c2ccc(OC(F)(F)F)cc2)c(F)c1` [Example 571]: the EC50 in assay [1] worked out at 6 nM; in assay [2], 580 nM.

Consider `COc1cc(F)c([C@@H]2CN(c3ccc(F)c(N4C[C@@H]5C[C@H]4CN5C)n3)C(=O)[C@H]2NC(=O)c2ccc(OC(F)(F)F)cc2)c(F)c1` [Example 572], for which the values for the EC50 in assay [1] and in assay [2] were 3.5 nM and 1600 nM, respectively.

On to `COc1cc(F)c([C@H]2[C@H](NC(=O)c3ccc(OC(F)F)cc3)C(=O)N(c3cccc(N4CCOCC4)n3)[C@H]2C)c(F)c1` [Example 574], for which the EC50 in assay [1] amounted to 15 nM; in assay [2], 550 nM.

`COc1cc(C2CC2)nc(N2C(=O)[C@@H](NC(=O)c3ccc(OC(F)(F)F)cc3)[C@H](c3c(F)cc(OC)cc3F)[C@@H]2C)c1` [Example 575]: the EC50 in assay [1] is 480 nM; in assay [2], above 5000 nM.

For the compound `COc1cc(F)c([C@@H]2CN(c3c(C)ccn(CCS(C)(=O)=O)c3=O)C(=O)[C@H]2NC(=O)c2ccc(OC(F)(F)F)cc2)c(F)c1` [Example 576], the values for the concentration giving a half-maximal response (EC50) in assay [1] and in assay [2] were 1.4 nM and 1.5 nM, respectively.

On to `COc1ccc([C@@H]2CN(c3c(C)ccn(C4CCC4)c3=O)C(=O)[C@H]2NC(=O)c2ccc(OC(F)F)cc2)cc1` [Example 577], for which the EC50 in assay [1] is 0.6 nM; in assay [2], 0.2 nM.

`COc1ccc([C@@H]2CN(c3c(C)ccn(C4COC4)c3=O)C(=O)[C@H]2NC(=O)c2ccc(OC(F)(F)F)cc2)cc1` [Example 578]: the EC50 was determined as 1.5 nM in assay [1] and 6 nM in assay [2].

Turning to `COc1cc(F)c([C@@H]2CN(c3c(C)ccn(Cc4cc(C)no4)c3=O)C(=O)[C@H]2NC(=O)c2ccc(OC(F)F)cc2)c(F)c1` [Example 579], the EC50 was determined as 5.8 nM in assay [1] and 5.5 nM in assay [2].

`COc1cc(F)c([C@@H]2CN(c3cccc(N4CCOCC4)n3)C(=O)[C@H]2NC(=O)c2ccc(OC(F)F)cc2)c(F)c1` [Example 580]: the half-maximal effective concentration (EC50) in assay [1] was determined as 3.6 nM; in assay [2], 740 nM.

With `COc1cc(F)c([C@@H]2CN(c3c(C)ccn(CC(C)O)c3=O)C(=O)[C@H]2NC(=O)c2ccc(Cl)cc2)c(F)c1` (stereo partly drawn) [Example 581], the EC50 came to 1.3 nM in assay [1] and 10 nM in assay [2].

For the compound `COc1cc(F)c([C@@H]2CN(c3cccn(C(CO)C(F)(F)F)c3=O)C(=O)[C@H]2NC(=O)c2ccc(OC(F)F)cc2)c(F)c1` (stereo partly drawn) [Example 582], the EC50 was found to be 4.7 nM in assay [1] and 550 nM in assay [2].

For `COc1cc(F)c([C@@H]2CN(c3cccn(C(CO)C(F)(F)F)c3=O)C(=O)[C@H]2NC(=O)c2ccc(OC(F)F)cc2)c(F)c1` (stereo partly drawn) [Example 583], the EC50 in assay [1] turned out to be 3.8 nM; in assay [2], 57 nM.

In the case of `COc1cc(N2C[C@@H](c3c(F)cc(OC)cc3F)[C@H](NC(=O)c3ccc(OC(F)(F)F)cc3)C2=O)nc(C(C)(C)O)c1` [Example 584], the EC50 was found to be 21.8 nM in assay [1] and 660 nM in assay [2].

As to `COc1cc(N2C[C@@H](c3c(F)cc(OC)cc3F)[C@H](NC(=O)c3ccc(OC(F)F)cc3)C2=O)nc(C(C)(C)O)c1` [Example 585], the EC50 is 21.8 nM in assay [1] and 1200 nM in assay [2].

Take `COc1cc(CO)nc(N2C[C@@H](c3c(F)cc(OC)cc3F)[C@H](NC(=O)c3ccc(OC(F)F)cc3)C2=O)c1` [Example 586]: the EC50 in assay [1] amounted to 9.8 nM; in assay [2], 1300 nM.

With `COc1cc(CO)nc(N2C[C@@H](c3c(F)cc(OC)cc3F)[C@H](NC(=O)c3ccc(OC(F)(F)F)cc3)C2=O)c1` [Example 587], the EC50 in assay [1] worked out at 1.1 nM; in assay [2], 600 nM.

For `COc1cc(C)nc(N2C[C@@H](c3c(F)cc(OC)cc3F)[C@H](NC(=O)c3ccc(OC(F)F)cc3)C2=O)c1` [Example 588], the figures for the EC50 in assay [1] and in assay [2] were 6.9 nM and 410 nM, respectively.

On to `COc1cc(C2CC2)nc(N2C[C@@H](c3c(F)cc(OC)cc3F)[C@H](NC(=O)c3ccc(OC(F)F)cc3)C2=O)c1` [Example 589], for which the EC50 in assay [1] worked out at 130 nM; in assay [2], 2600 nM.

On to `COc1cc(F)c([C@@H]2CN(c3nc(C4CCN(CCO)CC4)ccc3F)C(=O)[C@H]2NC(=O)c2ccc(OC(F)F)cc2)c(F)c1` [Example 590], for which the results for the EC50 in assay [1] and in assay [2] were 1.9 nM and 1600 nM, respectively.

Turning to `COc1cc(F)c([C@@H]2CN(c3c(C)c4c(n(CCO)c3=O)CCC4)C(=O)[C@H]2NC(=O)c2ccc(OC(F)F)cc2)c(F)c1` [Example 591], the 50% effective concentration (EC50) stood at 10.5 nM in assay [1] and 8.5 nM in assay [2].

With `COc1cc(F)c([C@@H]2CN(c3c(C)c4c(n(CCO)c3=O)CCC4)C(=O)[C@H]2NC(=O)c2ccc(OC(F)(F)F)cc2)c(F)c1` [Example 592], the EC50 stood at 7.1 nM in assay [1] and 6.2 nM in assay [2].

For the compound `COc1cc(F)c([C@@H]2CN(c3c(C)c4c(n(CCO)c3=O)CCC4)C(=O)[C@H]2NC(=O)c2ccc(Cl)cc2)c(F)c1` [Example 593], the EC50 stood at 3.3 nM in assay [1] and 40 nM in assay [2].
